Results: patent publication US8314078B2, “Silver nanoparticles as anti-microbial” (Vascular Vision Pharmaceutical Co., priority 2009, dated 2012)

Columns and labels:
S. aureus = assay: Minimum Inhibition Concentration (MIC) assay, modified micro-broth dilution, S. aureus; format: cell-based, Staphylococcus aureus; conditions: for activity against Staphylococcus aureus: at concentrations up to 1.0 μM; for MIC against S. aureus: mean±SEM, n=3, 18 hours at 37° C.
E. coli = assay: Minimum Inhibition Concentration (MIC) assay, modified micro-broth dilution, E. coli; format: cell-based, Escherichia coli; conditions: for activity against Escherichia coli: at concentrations up to 1.0 μM; for MIC against E. coli: mean±SEM, n=3, 18 hours at 37° C.

| Substance | activity against Staphylococcus aureus (S. aureus) | MIC against S. aureus (S. aureus) | activity against Escherichia coli (E. coli) | MIC against E. coli (E. coli) |
| --- | --- | --- | --- | --- |
| 2,6-diaminopyridinyl heparin [DAPHP] | no activity | >1.0 μM of sugar | no activity | >1.0 μM of sugar |
| hyaluronan [HA] | no activity | >1.0 μM of sugar | no activity | >1.0 μM of sugar |
